How the values were obtained:
Assay type in all cases: biochemical
[1] = target: human Cat B (Homo sapiens (Human), UniProt P07858); assay: Cathepsin enzyme inhibition assay (fluorogenic peptide substrate), Cat B; details: enzyme 1 nM, substrate Z-Val-Val-Arg-AMC 20 μM, pH 6.5
Procedure, shortened: (§1)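 Fluorogenic cleavage assay run separately on human and mouse enzymes, each at 1 nM, in 100 mM potassium phosphate pH 6.5 with 5 mM EDTA, 5 mM DTT and 0.001% Triton X-100. Reaction started with 20 μM Z-Val-Val-Arg-AMC, or Z-Leu-Arg-AMC for Cat K; AMC read at ex 360/em 465 nm. IC50 calculated by standard methods.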

[2] = target: human Cat K (Homo sapiens (Human), UniProt P43235); assay: Cathepsin enzyme inhibition assay (fluorogenic peptide substrate), Cat K; details: enzyme 1 nM, substrate Z-Leu-Arg-AMC 20 μM, pH 6.5
Procedure, shortened: as §1

[3] = target: human Cathepsin S (Homo sapiens (Human), UniProt P25774); assay: Cathepsin enzyme inhibition assay (fluorogenic peptide substrate), Cat S; details: enzyme 1 nM, substrate Z-Val-Val-Arg-AMC 20 μM, pH 6.5
Procedure, shortened: as §1

[4] = target: human Cat L (Homo sapiens (Human), UniProt P07711); assay: Cathepsin enzyme inhibition assay (fluorogenic peptide substrate), Cat L; details: enzyme 1 nM, substrate Z-Val-Val-Arg-AMC 20 μM, pH 6.5
Procedure, shortened: as §1

Sequence of human Cathepsin S (P25774 115-331): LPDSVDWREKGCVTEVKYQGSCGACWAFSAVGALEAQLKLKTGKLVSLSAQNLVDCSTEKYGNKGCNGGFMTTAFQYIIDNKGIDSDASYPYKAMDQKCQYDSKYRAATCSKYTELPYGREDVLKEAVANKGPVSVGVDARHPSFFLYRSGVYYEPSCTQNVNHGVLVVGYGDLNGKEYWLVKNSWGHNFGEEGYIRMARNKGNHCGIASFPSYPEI
Sequence of human Cat K (P43235 115-329): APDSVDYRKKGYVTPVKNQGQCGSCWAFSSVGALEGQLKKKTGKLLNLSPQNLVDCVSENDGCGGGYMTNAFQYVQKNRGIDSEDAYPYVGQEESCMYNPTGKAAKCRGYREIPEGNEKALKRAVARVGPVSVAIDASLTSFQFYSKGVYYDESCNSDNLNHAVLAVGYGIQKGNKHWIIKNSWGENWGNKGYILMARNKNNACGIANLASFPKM
Sequence of human Cat L (P07711 114-333): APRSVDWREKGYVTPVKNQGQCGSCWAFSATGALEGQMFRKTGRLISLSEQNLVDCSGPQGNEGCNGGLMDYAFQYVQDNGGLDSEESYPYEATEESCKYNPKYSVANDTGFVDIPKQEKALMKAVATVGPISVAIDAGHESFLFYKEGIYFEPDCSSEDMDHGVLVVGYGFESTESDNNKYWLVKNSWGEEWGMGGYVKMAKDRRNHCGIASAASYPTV

Row | Compound | IC50 [1] [nM] | IC50 [2] [nM] | IC50 [3] [nM] | IC50 [4] [nM]
1 | CC[C@H](NC(=O)[C@@H]1C[C@@H](S(=O)(=O)c2ccccc2C(F)(F)F)CN1C(=O)C1(c2ccc(Cl)cc2)CC1)C(=O)C(=O)NC1CC1 [Example 21, (2S,4R)-1-(1-(4-chlorophenyl)cyclopropanecarbonyl)-N—((S)-1-(cyclopropylamino)-1,2-dioxopentan-3-yl)-4-(2-(trifluoromethyl)phenylsulfonyl)pyrrolidine-2-carboxamide] | 165 | 406 | 0.668 | 28.7
2 | CC[C@H](NC(=O)[C@@H]1C[C@@H](S(=O)(=O)c2ccccc2Cl)CN1C(=O)C1(c2ccc(Cl)cc2)CC1)C(=O)c1nc2ccccc2o1 [Example 12, (2S,4R)—N—((S)-1-(benzo[d]oxazol-2-yl)-1-oxobutan-2-yl)-1-(1-(4-chlorophenyl)cyclopropanecarbonyl)-4-(2-chlorophenylsulfonyl)pyrrolidine-2-carboxamide] | 183 | 360 | 0.737 | 21.2
3 | CC[C@H](NC(=O)[C@@H]1C[C@@H](S(=O)(=O)c2ccccc2C(F)(F)F)CN1C(=O)C1(C(F)(F)F)CC1)C(=O)C(=O)NC1CC1 [Example 7, (2S,4R)—N—((S)-1-(cyclopropylamino)-1,2-dioxopentan-3-yl)-1-(1-(trifluoromethyl)cyclopropanecarbonyl)-4-(2-(trifluoromethyl)phenylsulfonyl)pyrrolidine-2-carboxamide] | 1850 | 11300 | 3.78 | 3040
4 | CC(C)(NC(=O)[C@@H]1C[C@@H](S(=O)(=O)c2ccccc2Cl)CN1C(=O)C1(c2ccc(Cl)cc2)CC1)C(=O)C(=O)NC1CC1 [Example 26, (2S,4R)-1-(1-(4-chlorophenyl)cyclopropanecarbonyl)-4-(2-chlorophenylsulfonyl)-N-(4-(cyclopropylamino)-2-methyl-3,4-dioxobutan-2-yl)pyrrolidine-2-carboxamide] | 25000 | 25000 | 10.5 | 3100
5 | CCC[C@H](NC(=O)[C@@H]1C[C@@H](S(=O)(=O)c2ccc(F)cc2Cl)CN1C(=O)C1(c2ccc(Cl)cc2)CC1)C(=O)C(=O)NC1CC1 [Example 48, (2S,4R)-4-(2-chloro-4-fluorophenylsulfonyl)-1-(1-(4-chlorophenyl)cyclopropanecarbonyl)-N—((S)-1-(cyclopropylamino)-1,2-dioxohexan-3-yl)pyrrolidine-2-carboxamide] | 83.2 | 35 | 0.527 | 9.4
6 | CCC[C@H](NC(=O)[C@@H]1C[C@@H](S(=O)(=O)c2ccccc2C(F)(F)F)CN1C(=O)C1(c2ncc(Cl)cc2F)CC1)C(=O)C(=O)NC1CC1 [Example 20, (2S,4R)-1-(1-(5-chloro-3-fluoropyridin-2-yl)cyclopropanecarbonyl)-N—((S)-1-(cyclopropylamino)-1,2-dioxohexan-3-yl)-4-(2-(trifluoromethyl)phenylsulfonyl)pyrrolidine-2-carboxamide] | 245 | 347 | 0.56 | 18.5
7 | O=C(NC1CC1)C(=O)[C@H](CC1CCCCC1)NC(=O)[C@@H]1C[C@@H](S(=O)(=O)c2ccccc2Cl)CN1C(=O)C1(c2ccc(Cl)cc2)CC1 [Example 30, (2S,4R)-1-(1-(4-chlorophenyl)cyclopropanecarbonyl)-4-(2-chlorophenylsulfonyl)-N—((S)-1-cyclohexyl-4-(cyclopropylamino)-3,4-dioxobutan-2-yl)pyrrolidine-2-carboxamide] | 210 | 137 | 1.42 | 23.4
8 | CC[C@H](NC(=O)[C@@H]1C[C@@H](S(=O)(=O)c2ccccc2Cl)CN1C(=O)C1(c2ccc(Cl)cc2)CC1)C(=O)C(=O)NCc1cccc2ccccc12 [Example 52, (2S,4R)-1-(1-(4-chlorophenyl)cyclopropanecarbonyl)-4-(2-chlorophenylsulfonyl)-N—((S)-1-(naphthalen-1-ylmethylamino)-1,2-dioxopentan-3-yl)pyrrolidine-2-carboxamide] | 386 | 317 | 1.96 | 9.4
9 | CC[C@H](NC(=O)[C@@H]1C[C@@H](S(=O)(=O)c2ccccc2Cl)CN1C(=O)C1(c2ccc(Cl)cc2)CC1)C(=O)C(=O)NCc1ccccc1 [Example 33, (2S,4R)—N—((S)-1-(benzylamino)-1,2-dioxopentan-3-yl)-1-(1-(4-chlorophenyl)cyclopropanecarbonyl)-4-(2-chlorophenylsulfonyl)pyrrolidine-2-carboxamide] | 77 | 52.9 | 1.11 | 13.6
10 | CCC[C@H](NC(=O)[C@@H]1C[C@@H](S(=O)(=O)c2ccccc2Cl)CN1C(=O)C1(c2ncc(Cl)cc2F)CC1)C(=O)C(=O)NC1CC1 [Example 24, (2S,4R)-1-(1-(5-chloro-3-fluoropyridin-2-yl)cyclopropanecarbonyl)-4-(2-chlorophenylsulfonyl)-N—((S)-1-(cyclopropylamino)-1,2-dioxohexan-3-yl)pyrrolidine-2-carboxamide] | 190 | 71.7 | 0.55 | 10.8

— US8729061B2, “Pyrrolidine derivatives” (Hoffmann-La Roche Inc., priority 2011, dated 2014)
